The subject of this test is A549 cells. Nature of the test: Proliferation Assay (A549 viability, Cell Titer Fluor, 72 hours). It counts as cell-based. The note with it: Homo sapiens, A549, 72 h. The method, then:
A549 cells were routinely maintained in RPMI 1640 media (Gibco catalog number 11875-093) supplemented with 10% dialyzed fetal bovine serum using a humidified incubator (37° C., 5% CO2 and ambient O2). In preparation for the viability assay, cells were inoculated into 384-well black CulturPlates (Perkin Elmer) at a density of 1000 cells/well in a volume of 40 uL. Following a 24-hour incubation at 37° C., 5% CO2 and ambient O2, cells were treated with compound (10 uL) in a final DMSO concentration of 0.5% (v/v). The microplates were then incubated for 72 hours (37° C., 5% CO2 and ambient O2). Cell Titer Fluor (Promega) was subsequently added (10 uL of 6× reagent) and mixed for 15 minutes at room temperature. The plates were then incubated for 30 minutes (37° C., 5% CO2 and ambient O2) and fluorescence was subsequently read on the Perkin Elmer Envision plate reader. IC50 values were calculated using a four-parameter logistic curve fit.
Non-limiting examples include the following compounds and pharmaceutically acceptable salts thereof. […] “ND” indicates no data.
As usually defined, the EC50 is the concentration needed to bring the measured effect to its halfway point. Higher therefore signals weaker potency. `CNC(=O)c1cn(CCCCc2ccc(NC(=O)Cc3cc(C4CC4)ccn3)nn2)nn1` [Example 190, 1-(4-{6-[2-(4-cyclopropylpyridin-2-yl)acetamido]pyridazin-3-yl}butyl)-N-methyl-1H-1,2,3-triazole-4-carboxamide] showed an EC50 of 100 to 500 nM.
Take `CNC(=O)c1cn(CCCCc2ccc(NC(=O)Cc3cc(Cl)ccn3)nn2)nn1` [Example 191, 1-(4-{6-[2-(4-chloropyridin-2-yl)acetamido]pyridazin-3-yl}butyl)-N-methyl-1H-1,2,3-triazole-4-carboxamide]: the EC50 is 100 to 500 nM.
Under `CNC(=O)c1cn(CCCCc2ccc(NC(=O)Cc3cc(-c4cccc(OC(F)(F)F)c4)ccn3)nn2)nn1` [Example 192, N-methyl-1-(4-(6-(2-(4-(3-(trifluoromethoxy)phenyl)pyridin-2-yl)acetamido)pyridazin-3-yl)butyl)-1H-1,2,3-triazole-4-carboxamide] stands < 100 nM; under `CNC(=O)c1cn(CCCCc2ccc(NC(=O)Cc3cc(Br)ccn3)nn2)nn1` [Example 200, 1-(4-(6-(2-(4-bromopyridin-2-yl)acetamido)pyridazin-3-yl)butyl)-N-methyl-1H-1,2,3-triazole-4-carboxamide], 100 to 500 nM; under `CNC(=O)c1cn(CCCCc2ccc(NC(=O)Cc3cncc(OC4CC(F)(F)C4)c3)nn2)nn1` [Example 202, 1-(4-(6-(2-(5-(3,3-difluorocyclobutoxy)pyridin-3-yl)acetamido)pyridazin-3-yl)butyl)-N-methyl-1H-1,2,3-triazole-4-carboxamide], 100 to 500 nM.
Take `O=C(Cc1ccccn1)Nc1ccc(CCCCn2cc(C(=O)NCc3cc(C(F)(F)F)ccn3)nn2)nn1` [Example 203, 1-(4-(6-(2-(pyridin-2-yl)acetamido)pyridazin-3-yl)butyl)-N-((4-(trifluoromethyl)pyridin-2-yl)methyl)-1H-1,2,3-triazole-4-carboxamide]: the EC50 is < 100 nM.
Under `CNC(=O)c1cn(CCCCc2ccc(NC(=O)Cc3cc(C(F)(F)F)ccn3)nn2)nn1` [Example 210, N-methyl-1-(4-(6-(2-(4-(trifluoromethyl)pyridin-2-yl)acetamido)pyridazin-3-yl)butyl)-1H-1,2,3-triazole-4-carboxamide] stands 100 to 500 nM; under `COc1cncc(CNC(=O)c2cn(CC(F)CCc3nnc(NC(=O)Cc4cccc(OC(F)(F)F)c4)s3)nn2)c1` (stereo not drawn) [Example 222, 1-(2-fluoro-4-(5-(2-(3-(trifluoromethoxy)phenyl)acetamido)-1,3,4-thiadiazol-2-yl)butyl)-N-((5-methoxypyridin-3-yl)methyl)-1H-1,2,3-triazole-4-carboxamide], < 100 nM; under `CNC(=O)c1cn(CCCCc2ccc(NC(=O)Cc3cc(OCC(F)(F)F)ccn3)nn2)nn1` [Example 225, N-methyl-1-(4-(6-(2-(4-(2,2,2-trifluoroethoxy)pyridin-2-yl)acetamido)pyridazin-3-yl)butyl)-1H-1,2,3-triazole-4-carboxamide], 100 to 500 nM.
Turning to `O=C(Cc1cncc(OC2CC(F)(F)C2)c1)Nc1ccc(CCCCn2cc(C(=O)NCc3cc(C(F)(F)F)ccn3)nn2)nn1` [Example 230, 1-(4-(6-(2-(5-(3,3-difluorocyclobutoxy)pyridin-3-yl)acetamido)pyridazin-3-yl)butyl)-N-((4-(trifluoromethyl)pyridin-2-yl)methyl)-1H-1,2,3-triazole-4-carboxamide], the concentration giving a half-maximal response (EC50) is < 100 nM.
Consider `O=C(Cc1cncc(OC2CC(F)(F)C2)c1)Nc1ccc(CCCCn2cc(C(=O)NCc3ccccn3)nn2)nn1` [Example 231, 1-(4-(6-(2-(5-(3,3-difluorocyclobutoxy)pyridin-3-yl)acetamido)pyridazin-3-yl)butyl)-N-(pyridin-2-ylmethyl)-1H-1,2,3-triazole-4-carboxamide], for which the EC50 is < 100 nM.
Under `CNC(=O)c1cn(CC(F)CCc2ccc(NC(=O)Cc3cc(-c4cccc(OC(F)(F)F)c4)ccn3)nn2)nn1` (stereo not drawn) [Example 242, 1-(2-fluoro-4-(6-(2-(4-(3-(trifluoromethoxy)phenyl)pyridin-2-yl)acetamido)pyridazin-3-yl)butyl)-N-methyl-1H-1,2,3-triazole-4-carboxamide] stands < 100 nM.
For `CNC(=O)c1cn(CC(F)CCc2ccc(NC(=O)Cc3cc(C(F)(F)F)ccn3)nn2)nn1` (stereo not drawn) [Example 248, 1-(2-fluoro-4-(6-(2-(4-(trifluoromethyl)pyridin-2-yl)acetamido)pyridazin-3-yl)butyl)-N-methyl-1H-1,2,3-triazole-4-carboxamide], the EC50 was < 100 nM.
With `CNC(=O)c1cn(CC(F)CCc2ccc(NC(=O)Cc3cc(OC4CC(F)(F)C4)ccn3)nn2)nn1` (stereo not drawn) [Example 252, 1-(4-(6-(2-(4-(3,3-difluorocyclobutoxy)pyridin-2-yl)acetamido)pyridazin-3-yl)-2-fluorobutyl)-N-methyl-1H-1,2,3-triazole-4-carboxamide], the concentration for a half-maximal effect (EC50) was < 100 nM.
Molecule `CNC(=O)c1cn(C[C@H](F)CCc2ccc(NC(=O)Cc3ccccn3)nn2)nn1` [Example 254, (R)-1-(2-fluoro-4-(6-(2-(pyridin-2-yl)acetamido)pyridazin-3-yl)butyl)-N-methyl-1H-1,2,3-triazole-4-carboxamide] had a concentration giving a half-maximal response (EC50) of 100 to 500 nM.
Under `CNC(=O)c1cn(C[C@H](F)CCc2ccc(NC(=O)Cc3cc(-c4cccc(OC(F)(F)F)c4)ccn3)nn2)nn1` [Example 255, (R)-1-(2-fluoro-4-(6-(2-(4-(3-(trifluoromethoxy)phenyl)pyridin-2-yl)acetamido)pyridazin-3-yl)butyl)-N-methyl-1H-1,2,3-triazole-4-carboxamide] stands < 100 nM; under `CNC(=O)c1cn(C[C@@H](F)CCc2ccc(NC(=O)Cc3ccccn3)nn2)nn1` [Example 256, (S)-1-(2-fluoro-4-(6-(2-(pyridin-2-yl)acetamido)pyridazin-3-yl)butyl)-N-methyl-1H-1,2,3-triazole-4-carboxamide], 100 to 500 nM.
For `CNC(=O)c1cn(C[C@@H](F)CCc2ccc(NC(=O)Cc3cc(-c4cccc(OC(F)(F)F)c4)ccn3)nn2)nn1` [Example 257, (S)-1-(2-fluoro-4-(6-(2-(4-(3-(trifluoromethoxy)phenyl)pyridin-2-yl)acetamido)pyridazin-3-yl)butyl)-N-methyl-1H-1,2,3-triazole-4-carboxamide], the EC50 was < 100 nM.
Under `CNC(=O)c1cn(C[C@@H](F)CCc2ccc(NC(=O)Cc3cc(C(F)(F)F)ccn3)nn2)nn1` [Example 260, (S)-1-(2-fluoro-4-(6-(2-(4-(trifluoromethyl)pyridin-2-yl)acetamido)pyridazin-3-yl)butyl)-N-methyl-1H-1,2,3-triazole-4-carboxamide] stands < 100 nM; under `CNC(=O)c1cn(CCCCc2ccc(NC(=O)Cc3cc(OC4CC(F)(F)C4)ccn3)nn2)nn1` [Example 261, 1-(4-(6-(2-(4-(3,3-difluorocyclobutoxy)pyridin-2-yl)acetamido)pyridazin-3-yl)butyl)-N-methyl-1H-1,2,3-triazole-4-carboxamide], < 100 nM.
Under `CNC(=O)c1cn(CC(F)CCc2ccc(NC(=O)Cc3cc(C(F)(F)F)cc(C)n3)nn2)nn1` (stereo not drawn) [Example 264, 1-(2-fluoro-4-(6-(2-(6-methyl-4-(trifluoromethyl)pyridin-2-yl)acetamido)pyridazin-3-yl)butyl)-N-methyl-1H-1,2,3-triazole-4-carboxamide] stands < 100 nM; under `CNC(=O)c1cn(CC(F)CCc2ccc(NC(=O)Cc3cc(OC(C)C(F)(F)F)ccn3)nn2)nn1` (stereo not drawn) [Example 266, 1-(2-fluoro-4-(6-(2-(4-((1,1,1-trifluoropropan-2-yl)oxy)pyridin-2-yl)acetamido)pyridazin-3-yl)butyl)-N-methyl-1H-1,2,3-triazole-4-carboxamide], < 100 nM; under `CNC(=O)c1cn(C[C@H](F)CCc2ccc(NC(=O)Cc3cc(C(F)(F)F)cc(C)n3)nn2)nn1` [Example 268, (R)-1-(2-fluoro-4-(6-(2-(6-methyl-4-(trifluoromethyl)pyridin-2-yl)acetamido)pyridazin-3-yl)butyl)-N-methyl-1H-1,2,3-triazole-4-carboxamide], < 100 nM.
Under `CNC(=O)c1cn(C[C@H](F)CCc2ccc(NC(=O)Cc3cc(OC4CC(F)(F)C4)ccn3)nn2)nn1` [Example 272, (R)-1-(4-(6-(2-(4-(3,3-difluorocyclobutoxy)pyridin-2-yl)acetamido)pyridazin-3-yl)-2-fluorobutyl)-N-methyl-1H-1,2,3-triazole-4-carboxamide] stands < 100 nM; under `CC(C)NC(=O)c1cn(CCCCc2ccc(NC(=O)Cc3cccc(OC(F)(F)F)c3)nn2)nn1` [Example 526, N-(propan-2-yl)-1-[4-(6-{2-[3-(trifluoromethoxy)phenyl]acetamido}pyridazin-3-yl)butyl]-1H-1,2,3-triazole-4-carboxamide], 500 to 5000 nM.
With `N#CCNC(=O)c1cn(CCCCc2ccc(NC(=O)Cc3cccc(OC(F)(F)F)c3)nn2)nn1` [Example 527, N-(cyanomethyl)-1-[4-(6-{2-[3-(trifluoromethoxy)phenyl]acetamido}pyridazin-3-yl)butyl]-1H-1,2,3-triazole-4-carboxamide], the 50% effective concentration (EC50) was < 100 nM.
With `O=C(Cc1cccc(OC(F)(F)F)c1)Nc1ccc(CCCCn2cc(C(=O)NCCO)nn2)nn1` [Example 528, N-(2-hydroxyethyl)-1-[4-(6-{2-[3-(trifluoromethoxy)phenyl]acetamido}pyridazin-3-yl)butyl]-1H-1,2,3-triazole-4-carboxamide], the half-maximal effective concentration (EC50) is 500 to 5000 nM.

The values above are taken from patent US10344025B2, “GLS1 inhibitors for treating disease” (Board of Regents, The University of Texas System, priority 2014, dated 2019).
